Patent US20100041756A1, “METHOD OF MODULATING B CELL FUNCTIONING” (priority 2004, published 2010)

Key:
Format in all cases: cell-based, mouse
[1] = test system: B cells stimulated with anti-CD40; experiment: Purified B cell proliferation, anti-CD40, 3H-thymidine incorporation (Example 4)
Protocol: (§1) FIG. 10 is a graphical representation depicting that 3,4-DAA and 3-HAA inhibit B and T cell proliferation in vitro. Purified B and T cells were stimulated for 72 h with anti-CD40 (a), or anti-CD3/anti-CD28 (b) respectively, in the presence of varying doses of 3,4-DAA, or 3-HAA.
(§2) A single cell suspension was prepared from spleen by mincing through a cell strainer, and erythrocytes were lysed using an ammonium chloride solution (Sigma, St Louis, Mo., USA). B cells were positively enriched by using anti-IgM MACS microbeads, and T cells were positively enriched using anti-CD4 MACS microbeads and the MACS system, according to the manufacturer's guidelines (Miltenyi Biotec, Bergisch Gladbach, Germany). Purity was assessed by flow cytometric analysis (B cell>90% CD19+, T cell>90% CD4+). Cells were cultured at 5×10^5 cells/ml in 200 μl complete RPMI, as above, in a flat bottom 96-well plate and cultured for 72 h. B cells were stimulated with anti-CD40 monoclonal antibody (10 μg/ml; BD), and T cells were stimulated with 5 μg/ml plate-bound anti-CD3 (BD), 5 μg/ml soluble anti-CD28 (BD). Tranilast, 3-HAA, or vehicle (DMSO) were incubated at concentrations stated with the cultures. 48 hours after stimulation, 100 μl culture medium was collected, and cells were pulsed with 1 μCi ^3H thymidine per well for 18 h. Cells were then harvested and plates assessed for incorporation. Each assay was performed on a minimum of 3 occasions. Data shown is of one representative experiment, and is expressed as mean+/−SD of triplicate in culture. IFN-γ, IL-10 and IL-5 levels was assessed in the culture medium by ELISA, as above.

[2] = test system: T cells stimulated with anti-CD3/anti-CD28; experiment: Purified T cell proliferation, anti-CD3/anti-CD28, 3H-thymidine incorporation (Example 4)
Protocol: as §1, §2

[3] = test system: T cells stimulated with anti-CD3/anti-CD28; experiment: Cytokine production by stimulated T cells in vitro (ELISA)
Protocol: as §1, §2

With `Nc1c(O)cccc1C(=O)O` [3-HAA, 3-Hydroxyanthranilic acid] the IC50 ([1]; Mus musculus, B-cell, anti-CD40, 72 h, 3H-thymidine (FIG. 10A), read-out: IC50 for inhibition of B cell proliferation) was 64.7 µM, the B cell proliferation ([1]; anti-CD40, varying doses (FIG. 10A)) was “dose-dependently inhibited” and the IC50 ([2]; Mus musculus, T-cell, anti-CD3/CD28, 72 h, 3H-thymidine (FIG. 10B), read-out: IC50 for inhibition of T cell proliferation) was 100 µM. The T cell proliferation ([2]; anti-CD3/CD28, varying doses (FIG. 10B)) was “dose-dependently inhibited”, the “IFN-γ production by T-cells” value ([3]; FIG. 10C) was “dose-dependently reduced” and the “IL-10 production by T-cells” value ([3]; FIG. 10D) was “increased”. The “IL-5 production by T-cells” value ([3]; FIG. 10E) was “increased”.
